# Test results taken from ChEMBL document CHEMBL3297728, “Synthesis and antituberculosis activity of novel 5-styryl-4-(hetero)aryl-pyrimidines via combination of the Pd-catalyzed Suzuki cross-coupling and S(N)(H) reactions” (Bioorg Med Chem Lett, 2014).
# What was measured:
# [1] = Acute toxicity in mouse administered as single po dose; assay type: organism-based; conditions: in vivo
# Mycobacterium avium = experiment: Antimycobacterial activity against Mycobacterium avium after 10 days by microbroth dilution method; assay type: functional; conditions: 240 h
# [2] = test system: Mycobacterium tuberculosis; experiment: Antimycobacterial activity against Mycobacterium tuberculosis H37Rv after 10 days by microbroth dilution method; assay type: functional; conditions: 240 h
# Mycolicibacter terrae = experiment: Antimycobacterial activity against Mycobacterium terrae after 10 days by microbroth dilution method; assay type: functional; conditions: 240 h
# [3] = Acute toxicity in mouse administered as single ip dose; assay type: organism-based; conditions: in vivo
Compound,LD50 [1] [mg/kg],MIC (Mycobacterium avium) [µg/mL],MIC [2] [µg/mL],MIC (Mycolicibacter terrae) [µg/mL],LD50 [3] [mg/kg]
NNC(=O)c1ccncc1 [ISONIAZID],133,0.1,0.1,0.1,151
C(=C\c1cncnc1-c1ccco1)/c1ccc(-c2ccccc2)cc1,,,12.5,,
C(=C\c1cncnc1-c1ccco1)/c1ccccc1,,,6.25,,
c1csc(-c2ccc(-c3ccncn3)s2)c1,,,12.5,,
Brc1cncnc1-c1cccs1,315,0.3,0.7,0.3,
C(=C\c1cncnc1-c1ccc(-c2cccs2)s1)/c1ccccc1,,,,0.7,
c1csc(-c2ccncn2)c1,,,12.5,,
c1ccc(-c2ccc(-c3ccncn3)s2)cc1,,,12.5,,
C(=C\c1cncnc1-c1ccc(-c2ccccc2)s1)/c1ccccc1,,,12.5,,
C(=C\c1cncnc1-c1ccc(-c2cccs2)s1)/c1ccc(-c2ccccc2)cc1,78,0.7,1.5,0.7,
C(=C\c1cncnc1-c1ccc(-c2ccccc2)s1)/c1ccc(-c2ccccc2)cc1,,,12.5,,
Brc1cncnc1-c1ccc(-c2cccs2)s1,,,,0.7,
Brc1cncnc1-c1ccc(-c2ccccc2)s1,,,6.25,,
C(=C\c1cncnc1-c1cccs1)/c1ccc(-c2ccccc2)cc1,,,12.5,,
NC(=O)c1cnccn1 [PYRAZINAMIDE],,,12.5,,1680
Brc1cncnc1-c1ccco1,405,0.7,1.5,0.7,
C(=C\c1cncnc1-c1cccs1)/c1ccccc1,,,12.5,,
